Experimental data as given in patent US7511041B2, “Fused azole-pyrimidine derivatives” (Bayer Pharmaceuticals Corporation, priority 2002, dated 2009).
Where a name gives a salt, the structure may show the parent alone.

COc1cc2c(cc1OC)C1=NCCN1C(/C=C(\O)c1cccnc1)=N2 (as salt: hydrochloride) [Example 1-2, (Z)-2-(8,9-Dimethoxy-2,3-dihydroimidazo[1,2-c]quinazolin-5-yl)-1-(3-pyridinyl)-ethenol hydrochloride] gave a melting point greater than 300 °C. COc1c(O)ccc2c1N=C(/C=C(\O)c1cccnc1)N1CCN=C21 (as salt: hydrochloride) [Example 1-4, 5-(2-Hydroxy-2-pyridin-3-ylvinyl)-7-methoxy-2,3-dihydroimidazo[1,2-c]quinazolin-8-ol hydrochloride] gave a melting point of 245 °C. Compound COc1c(OCCCC(=O)O)ccc2c1N=C(/C=C(\O)c1cccnc1)N1CCN=C21 (as salt: hydrochloride) [Example 1-7, 4-{[5-(2-Hydroxy-2-pyridin-3-ylvinyl)-7-methoxy-2,3-dihydroimidazo[1,2-c]quinazolin-8-yl]oxy}butanoic acid hydrochloride] has a melting point of 249 to 251 °C. With O=C(NC1=Nc2ccccc2C2=NCCN12)c1cccnc1 (as salt: hydrochloride) [Example 2-2, N-(2,3-Dihydroimidazo[1,2-c]quinazolin-5-yl)nicotinamide hydrochloride] the melting point was 289 °C (dec.). For O/C(=C\c1nc2ccccc2c2nccn12)c1cccs1 (as salt: hydrochloride) [Example 3-1, (Z)-2-Imidazo[1,2-c]quinazolin-5-yl-1-(2-thienyl)ethenol], the melting point was 263 °C (dec.). With O=C(Nc1nc2ccccc2c2nccn12)c1cccnc1 (as salt: hydrochloride) [Example 4-2, N-Imidazo[1,2-c]quinazolin-5-ylnicotinamide hydrochloride] the melting point was 228 °C (dec.). For COc1ccc2c(c1OC)N=C(/C=C(\O)c1cccnc1)N1CCN=C21.Cl [Example 1-11], the melting point was 249 to 250 °C. With COc1c(OCCO)ccc2c1N=C(/C=C(\O)c1cccnc1)N1CCN=C21.Cl [Example 1-17] the melting point was 215 °C (dec.). With COc1c(OCC(N)=O)ccc2c1N=C(/C=C(\O)c1cccnc1)N1CCN=C21.Cl [Example 1-24] the melting point was 235 °C (dec.). In the case of COc1c(OCC(=O)N(C)C)ccc2c1N=C(/C=C(\O)c1cccnc1)N1CCN=C21.Cl [Example 1-28], the melting point is reported as 205 °C (dec.). COc1c(OCC(=O)N2CCOCC2)ccc2c1N=C(/C=C(\O)c1cccnc1)N1CCN=C21.Cl [Example 1-30] showed a melting point of 240 to 241 °C. COc1c(C)ccc2c1N=C(/C=C(\O)c1ccc3[nH]cnc3c1)N1CCN=C21.Cl [Example 1-35] showed a melting point of 270 °C. For COc1ccc2c(c1OCCN1CCOCC1)N=C(/C=C(\O)c1cccnc1)N1CCN=C21.Cl [Example 1-37], the melting point was 215 °C. In the case of Cc1ccc2c(c1OCCN1CCOCC1)N=C(/C=C(\O)c1cccnc1)N1CCN=C21.Cl [Example 1-40], the melting point is reported as 256 °C (dec.). With COc1cc(OC)c2c(c1)C1=NCCN1C(/C=C(\O)c1cccnc1)=N2.Cl [Example 1-43] the melting point was 290 °C (dec.). In the case of Cc1cc(Br)c2c(c1)C1=NCCN1C(/C=C(\O)c1ccc3[nH]cnc3c1)=N2.Cl [Example 1-48], the melting point is reported as greater than 285 °C. With COc1cc2c(cc1OC)C1=NCCN1C(/C=C(\O)c1ccc3[nH]cnc3c1)=N2 [Example 1-56] the melting point was 212 to 215 °C. Work on COc1cc2c(cc1OC)C1=NCCN1C(/C=C(\O)c1cccs1)=N2.Cl [Example 1-59] yielded a melting point of 266 to 268 °C. With COc1cc2c(cc1OC)C1=NCCN1C(/C=C(\O)c1sc(C)nc1C)=N2.Cl [Example 1-61] the melting point was 268 to 271 °C. COc1cc2c(c(OC)c1C)N=C(/C=C(\O)c1cccnc1)N1CCN=C21.Cl [Example 1-63] gave a melting point of 285 °C. COc1cc2c(c(OC)c1C)N=C(/C=C(\O)c1ccc(NC(C)=O)nc1)N1CCN=C21.Cl [Example 1-65] gave a melting point greater than 285 °C. Work on COc1cc2c(c(OC)c1C)N=C(/C=C(\O)c1ccc3[nH]cnc3c1)N1CCN=C21.Cl [Example 1-67] yielded a melting point greater than 285 °C. With COc1cccc2c1N=C(/C=C(\O)c1cccnc1)N1CCN=C21.Cl [Example 1-69] the melting point was 285 °C.
